Tests used:
Format in all cases: in vivo
Details in all cases: evaluated after 13 days
[1] = tested on: Setaria faberi (SETFA); assay: Post-emergence Test, Setaria faberi (SETFA); design: key to percentage damage caused to the plant, SETFA (five-point scale): 5=81-100%, 4=61-80%, 3=41-60%, 2=21-40%, 1=0-20% damage
Procedure: (§1) Seeds of a variety of test species are sown in standard soil in pots (Setaria faberi (SETFA), Echinochloa crus-galli (ECHCG), Zea mays (ZEAMX), Ipomoea hederacea (IPOHE), Amaranthus palmeri (AMAPA), Amaranthus retoflexus (AMARE)). After 8 days cultivation under controlled conditions in a glasshouse (at 24° C./16° C., day/night; 14 hours light; 65% humidity), the plants are sprayed with an aqueous spray solution derived from the formulation of the technical active ingredient in acetone/water (50:50) solution containing 0.5% Tween 20 (polyoxyethelyene sorbitan monolaurate, CAS RN 9005-64-5). Compounds are applied at 1000 g/ha unless otherwise stated. The test plants are then grown in a glasshouse under controlled conditions in a glasshouse (at 24° C./16° C., day/night; 14 hours light; 65% humidity) and watered twice daily. After 13 days the test is evaluated for the percentage damage caused to the plant. The biological activities are shown in the following table on a five-point scale (5=81-100%; 4=61-80%; 3=41-60%; 2=21-40%; 1=0-20%; -=not tested).

[2] = tested on: Echinochloa crus-galli (ECHCG); assay: Post-emergence Test, Echinochloa crus-galli (ECHCG); design: key to percentage damage caused to the plant, ECHCG (five-point scale): 5=81-100%, 4=61-80%, 3=41-60%, 2=21-40%, 1=0-20% damage
Procedure: as §1

[3] = tested on: Zea mays (ZEAMX); assay: Post-emergence Test, Zea mays (ZEAMX); design: key to percentage damage caused to the plant, ZEAMX (five-point scale): 5=81-100%, 4=61-80%, 3=41-60%, 2=21-40%, 1=0-20% damage
Procedure: as §1

[4] = tested on: Ipomoea hederacea (IPOHE); assay: Post-emergence Test, Ipomoea hederacea (IPOHE); design: key to percentage damage caused to the plant, IPOHE (five-point scale): 5=81-100%, 4=61-80%, 3=41-60%, 2=21-40%, 1=0-20% damage
Procedure: as §1

[5] = tested on: Amaranthus palmeri (AMAPA); assay: Post-emergence Test, Amaranthus palmeri (AMAPA); design: key: 5=81-100%, 4=61-80%, 3=41-60%, 2=21-40%, 1=0-20% damage
Procedure: as §1

[6] = tested on: Amaranthus retoflexus (AMARE); assay: Post-emergence Test, Amaranthus retoflexus (AMARE); design: key to percentage damage caused to the plant, AMARE (five-point scale): 5=81-100%, 4=61-80%, 3=41-60%, 2=21-40%, 1=0-20% damage
Procedure: as §1

SMILES | percentage damage caused to the plant, SETFA (five-point scale) ([1]; 1000 g/ha) | percentage damage caused to the plant, ECHCG (five-point scale) ([2]; 1000 g/ha) | percentage damage caused to the plant, ZEAMX (five-point scale) ([3]; 1000 g/ha) | percentage damage caused to the plant, IPOHE (five-point scale) ([4]; 1000 g/ha) | percentage damage caused to the plant, AMAPA (five-point scale) ([5]; 1000 g/ha) | percentage damage caused to the plant, AMARE (five-point scale) ([6]; 1000 g/ha) | percentage damage caused to the plant, SETFA (five-point scale) ([1]; 250 g/Ha) | percentage damage caused to the plant, ECHCG (five-point scale) ([2]; 250 g/Ha) | percentage damage caused to the plant, ZEAMX (five-point scale) ([3]; 250 g/Ha) | percentage damage caused to the plant, IPOHE (five-point scale) ([4]; 250 g/Ha) | percentage damage caused to the plant, AMAPA (five-point scale) ([5]; 250 g/Ha) | percentage damage caused to the plant, AMARE (five-point scale) ([6]; 250 g/Ha)
CCOC(=O)c1c(-c2ccc(Cl)c(Cl)c2)n(CC)c(Cn2nccn2)cc1=O [Compound 58, ethyl 2-(3,4-dichlorophenyl)-1-ethyl-4-oxo-6-(triazol-2-ylmethyl)pyridine-3-carboxylate] | 1 (1=0-20%) | 1 (1=0-20%) | 0 | 0 | 0 | 1 (1=0-20%) | – | – | – | – | – | –
CCOC(=O)c1c(-c2ccc(Cl)c(Cl)c2)n(CC)c(Cn2cncn2)cc1=O [Compound 60, ethyl 2-(3,4-dichlorophenyl)-1-ethyl-4-oxo-6-(1,2,4-triazol-1-ylmethyl)pyridine-3-carboxylate] | 1 (1=0-20%) | 2 (2=21-40%) | 0 | 1 (1=0-20%) | 0 | 1 (1=0-20%) | – | – | – | – | – | –
CCOC(=O)c1c(-c2ccc(Cl)c(Cl)c2)n(CC)c(Cn2nccc2Cl)cc1=O [Compound 67, ethyl 6-[(5-chloropyrazolo-1-yl)methyl]-2-(3,4-dichlorophenyl)-1-ethyl-4-oxo-pyridine-3-carboxylate] | – | – | – | – | – | – | 0 | 0 | 0 | 0 | 1 (1=0-20%) | 1 (1=0-20%)
CCOC(=O)c1c(-c2ccc(Cl)c(Cl)c2)n(CC)c(Cn2cnc(Cl)c2Cl)cc1=O [Compound 68, ethyl 6-[(4,5-dichloroimidazol-1-yl)methyl]-2-(3,4-dichlorophenyl)-1-ethyl-4-oxo-pyridine-3-carboxylate] | 1 (1=0-20%) | 1 (1=0-20%) | 0 | 1 (1=0-20%) | 1 (1=0-20%) | 1 (1=0-20%) | 1 (1=0-20%) | 0 | 1 (1=0-20%) | 1 (1=0-20%) | 1 (1=0-20%) | 1 (1=0-20%)
CCn1c(Cn2ncc([N+](=O)[O-])c2C)cc(=O)c(C(=O)O)c1-c1ccc(Cl)c(Cl)c1 [Compound 69, 2-(3,4-dichlorophenyl)-1-ethyl-6-[(5-methyl-4-nitro-pyrazol-1-yl)methyl]-4-oxo-pyridine-3-carboxylic acid] | 3 (3=41-60%) | 1 (1=0-20%) | 2 (2=21-40%) | 1 (1=0-20%) | 1 (1=0-20%) | 1 (1=0-20%) | – | – | – | – | – | –
CCc1ncnn1Cc1cc(=O)c(C(=O)O)c(-c2ccc(Cl)c(Cl)c2)n1CC [Compound 70, 2-(3,4-dichlorophenyl)-1-ethyl-6-[(5-ethyl-1,2,4-triazol-1-yl)methyl]-4-oxo-pyridine-3-carboxylic acid] | 2 (2=21-40%) | 1 (1=0-20%) | 0 | 1 (1=0-20%) | 1 (1=0-20%) | 1 (1=0-20%) | – | – | – | – | – | –
CCn1c(Cn2cnc(Cl)c2)cc(=O)c(C(=O)O)c1-c1ccc(Cl)c(Cl)c1 [Compound 74, 6-[(4-chloroimidazol-1-yl)methyl]-2-(3,4-dichlorophenyl)-1-ethyl-4-oxo-pyridine-3-carboxylic acid] | 0 | 0 | 1 (1=0-20%) | 0 | 0 | 0 | – | – | – | – | – | –
CCn1c(Cn2cnc(C(=O)OC)c2)cc(=O)c(C(=O)O)c1-c1ccc(Cl)c(Cl)c1 [Compound 76, 2-(3,4-dichlorophenyl)-1-ethyl-6-[(4-methoxycarbonyl-imidazol-1-yl)methyl]-4-oxo-pyridine-3-carboxylic acid] | 1 (1=0-20%) | 0 | 1 (1=0-20%) | 0 | 1 (1=0-20%) | 1 (1=0-20%) | – | – | – | – | – | –
CCn1c(Cn2cnc(F)c2)cc(=O)c(C(=O)O)c1-c1ccc(Cl)c(Cl)c1 [Compound 77, 2-(3,4-dichlorophenyl)-1-ethyl-6-[(4-fluoroimidazol-1-yl)methyl]-4-oxo-pyridine-3-carboxylic acid] | 0 | 1 (1=0-20%) | 1 (1=0-20%) | 0 | 1 (1=0-20%) | 1 (1=0-20%) | – | – | – | – | – | –
CCn1c(Cn2nc(C(F)F)c3c2CCOC3)cc(=O)c(C(=O)O)c1-c1ccc(Cl)c(Cl)c1 [Compound 87, 2-(3,4-dichlorophenyl)-6-[[3-(difluoromethyl)-6,7-dihydro-4H-pyrano[4,3-c]pyrazol-1-yl]methyl]-1-ethyl-4-oxo-pyridine-3-carboxylic acid] | 1 (1=0-20%) | 1 (1=0-20%) | 1 (1=0-20%) | 1 (1=0-20%) | 2 (2=21-40%) | 1 (1=0-20%) | 0 | 1 (1=0-20%) | 1 (1=0-20%) | 0 | 0 | 0
CCn1c(Cn2cc(S(C)(=O)=O)cn2)cc(=O)c(C(=O)O)c1-c1ccc(Cl)c(Cl)c1 [Compound 90, 2-(3,4-dichlorophenyl)-1-ethyl-6-[(4-methylsulfonylpyrazol-1-yl)methyl]-4-oxo-pyridine-3-carboxylic acid] | 0 | 1 (1=0-20%) | 0 | 0 | 1 (1=0-20%) | 1 (1=0-20%) | – | – | – | – | – | –
